Values quoted from earlier work as cited in patent US20220241055A1, “DENTAL IMPLANT WITH ANTIBACTERIAL/ ANTIMICROBIAL PROPERTY HAVING METAL-ORGANIC FRAMEWORK (MOF) STRUCTURE AND PRODUCTION METHOD THEREOF” (RECEP TAYYIP ERDOGAN UNIVERSITESI, priority 2019, published 2022).

Conditions: conditions similar to body medium (SBF, 37° C.), stored in metal-organic framework structures

duration of release of the stored drug: 6 days
SMILES: CC(C)Cc1ccc(C(C)C(=O)O)cc1 (stereo not shown) [ibuprofen]
